Test results published in patent publication US5002969A, “Pharmaceutical compositions containing titanocene complexes and use of these complexes as cytostatic agents” (priority 1985, dated 1991).

Key:
ascitic Sarcoma 180 = assay: Activity against ascitic Sarcoma 180; assay type: in vivo, female NMRI mice; settings: for Survivors/Animals Treated: day 80; for MST (mean survival time): mean (range)
Description: Each animal obtained about 10^7 tumor cells.
Every day occuring deaths were noted.

Colon 38 Carcinoma = assay: Activity against Colon 38 Carcinoma; assay type: in vivo, female B6 D2 F1 mice; settings: day 15
Protocol: (§1) The B16 melanoma and colon 38 carcinoma used were obtained from the NCI Liasion Office, Institut Jules Bordet, Brussels, Belgium and, for propagation, were kept as solid, subcutaneously growing tumor lines on male C57BL/6J mice. For testing, the tumors were transplanted to female B6 D2 F1 mice. All animals were kept under standard conditions (22°-23° C., tap water and altromin food ad libitum, 12-h light-dark rhythm).
(§2) For tumor transplantation on day 0 of the testing experiments, solid tumors were removed from donor mice, minced with scissors and reduced to small particles. After suspension in twofold volumes of Hank's balanced salt solution, volumes of 0.3 ml were inoculated subcutaneously into the axillary region, resulting in the growth of solitary solid tumors.
(§3) The test compounds were administered either as a single injection on day 1 or as three injections on days 1, 3 and 5, or as five injections on days 1, 3, 5, 7 and 9. The different doses applied and the animal distribution are recorded in table 4. The substances, dissolved or suspended in a DMSO-saline mixture (1/9=v/v), were always injected intraperitoneally. The concentrations were selected in such a manner that each mouse received a total volume of 0.4 to 0.5 ml. Control animals only obtained one, three or five injections of the DMSO-saline mixture (0.5 ml/animal) without drug addition.
(§4) The number of deaths was recorded daily. Deaths occuring within 7 days (single injection), 11 days (three injections) or 15 days (five injections) after tumor transplantation were defined as deaths due to substance toxicity.
(§5) In the case of B16 melonoma, the tumors were removed and weighed on day 10 for the single and three injections or on day 15 for the five injections. Colon 38 carcinomas were always evaluated on day 15 of the experiment.

Rectum Adenocarcinoma = assay: Activity against heterotransplanted human rectum adenocarcinoma; assay type: in vivo; settings: 5 × 15 mg/kg; day 25
Protocol: (§6) The same testing procedure as in the tests with B16 melanoma and colon 38 carcinoma was employed. The test compounds were applied in equivalent and equitoxic doses, subdivided into five injections. The first injection was administered on day 8 (mammary carcinoma), day 10 (adenocarcinoma of rectum and lung) and day 26 (small cell lung carcinoma) of the tumor transplantation. The T/C values were determined 3 days after the last substance injection, i.e., on day 23 (mammary carcinoma), day 25 (adenocarcinoma of rectum and lung) and day 41 (small cell lung carcinoma).

solid Sarcoma 180 = assay: Activity against solid Sarcoma 180; settings: day 9; for Tumor Weight: mean ± SD
Protocol: The sarcoma 180 used in the present study was obtained from the Deutsche Krebsforschungszentrum (Heidelberg, Germany). It was propagated as an intraperitoneally growing tumor line on female NMRI mice which were kept under standard conditions (altromin food and tap water ad libitum, 12-h dark-light rhythm).
Antitumor testing was performed against sarcoma 180 in fluid ascitic as well as in solid, subcutaneously growing form. For testing against ascitic or solid sarcoma 180, the ascitic tumor of donor mice was harvested, diluted 1:3 (v:v) with saline and injected either into the peritoneal cavity or, subcutaneously, into the axillary region of female NMRI mice. Each animal obtained about 10^7 tumor cells. The day of tumor transplantation was defined as day 0 of the experiment.
Before administration of the test compounds, samples corresponding to the applied doses were dissolved in DMSO, filled up with ninefold volumes of saline and applied to mice in volumes of 0.02 ml per g of body weight. The different doses were either given as a single injection on day 1 or as triple injections on days 1, 3 and 5. […] The untreated, tumor-bearing control animals only received injections of the DMSO/saline mixture (0.02 ml/g). Every day occuring deaths were noted. Deaths within 8 days after tumor transplantation were defined as toxic deaths due to substance toxicity. In the case of ascitic sarcoma 180, the parameters evaluated were the values of mean survival time (MST) and of increase in life span (ILS); the latter was calculated by relating the mean survival time of a treated group to that of the corresponding control group expressed as a percentage and by subtracting 100%. The key date for the evaluation of the experiment and for determining the number of surviving (cured) animals was day 80. In the case of solid sarcoma 180, the tumors were removed on day 9 after transplantation and weighted to an accuracy of ±1 mg. From tumor weights of treated and control animals, the T/C ratios were calculated as follows: [formula]

Mammary Carcinoma = assay: Activity against heterotransplanted human mammary carcinoma; assay type: in vivo, human tumor xenograft tumor xenograft tumor xenograft; settings: 5 × 15 mg/kg; day 23
Protocol: as §6

Ehrlich ascites tumor = assay: Activity against Ehrlich Ascites Tumor; assay type: in vivo, Female CF1 mice; settings: single i.p. dose, 24 h after tumor inoculation
Protocol: Female CF1 mice are each given about 6×10^6 Ehrlich ascites tumor cells by means of intraperitoneal injection and, 24 hours later, a single intraperitoneal dose of substance dose range of 20 to 500 mg/kg) in physiological saline solution (0.4 ml). In each case 5 to 10 animals are tested per dose. If appropriate, the preparation can be buffered to a pH of 4 to 7, for example with sodium bicarbonate or tris-(hydroxymethyl)-aminomethane, in order to avoid local irritation at the injection site. A group of untreated control animals which were injected intraperitoneally with 0.4 ml of physiological saline solution without administration of the substance is also run for each test series.
The tumor development in the individual dose ranges is evaluated by means of the weight course and survival time. The dose-dependent number of tumor deaths, toxicity deaths and surviving, and the associated percentage increase in the average survival time are determined for each substance.

B16 Melanoma = assay: Activity against B16 Melanoma; assay type: in vivo, female B6 D2 F1 mice; settings: day 10
Protocol: as §1, §2, §3, §4, §5

Lung Adenocarcinoma = assay: Activity against heterotransplanted human lung adenocarcinoma; assay type: in vivo; settings: 5 × 15 mg/kg; day 25
Protocol: as §6

[1] = test system: Lung Small Cell Carcinoma; assay: Activity against heterotransplanted human small cell lung carcinoma; assay type: in vivo; settings: 5 × 15 mg/kg; day 41
Protocol: as §6

titanocene dichloride [reference compound]
ILS (increase in life span) (ascitic Sarcoma 180; 1 × 40 mg/kg, group of 5): 81%
Survivors/Animals Treated (ascitic Sarcoma 180; 1 × 40 mg/kg, group of 5): 1/5
MST (mean survival time) (ascitic Sarcoma 180; 1 × 40 mg/kg, group of 5): 32,0 (18-80) d
ILS (increase in life span) (ascitic Sarcoma 180; 1 × 40 mg/kg, group of 6): 32%
MST (mean survival time) (ascitic Sarcoma 180; 1 × 40 mg/kg, group of 6): 27,3 (20-49) d
ILS (increase in life span) (ascitic Sarcoma 180; 1 × 50 mg/kg, group of 5): 184%
Survivors/Animals Treated (ascitic Sarcoma 180; 1 × 50 mg/kg, group of 5): 2/5
MST (mean survival time) (ascitic Sarcoma 180; 1 × 50 mg/kg, group of 5): 50,0 (25-80) d
ILS (increase in life span) (ascitic Sarcoma 180; 1 × 50 mg/kg, group of 6): 161%
Survivors/Animals Treated (ascitic Sarcoma 180; 1 × 50 mg/kg, group of 6): 3/6
MST (mean survival time) (ascitic Sarcoma 180; 1 × 50 mg/kg, group of 6): 54,0 (25-80) d
T/C (Colon 38 Carcinoma; 1 × 50 mg/kg i.p.): 41%
T/C (Colon 38 Carcinoma; 3 × 40 mg/kg i.p.): 28%
T/C (based on mean relative volume of tumor) (Rectum Adenocarcinoma): 38%
T/C (solid Sarcoma 180; 1 × 40 mg/kg): 111%
Tumor Weight (solid Sarcoma 180; 1 × 40 mg/kg): 1,31 ± 0,24 g
T/C (solid Sarcoma 180; 1 × 50 mg/kg): 66%
Tumor Weight (solid Sarcoma 180; 1 × 50 mg/kg): 0,78 ± 0,34 g
T/C (solid Sarcoma 180; 3 × 40 mg/kg): 58%
Tumor Weight (solid Sarcoma 180; 3 × 40 mg/kg): 0,75 ± 0,32 g
T/C (solid Sarcoma 180; 3 × 50 mg/kg): 23%
Tumor Weight (solid Sarcoma 180; 3 × 50 mg/kg): 0,29 ± 0,14 g
T/C (based on mean relative volume of tumor) (Mammary Carcinoma): 49%
Optimal Treating Rate (Ehrlich ascites tumor): 90-100%
Therapeutic Index (LD50/ED90) (Ehrlich ascites tumor): 3,3
T/C (B16 Melanoma; 1 × 50 mg/kg i.p.): 61%
T/C (B16 Melanoma; 3 × 40 mg/kg i.p.): 69%
T/C (B16 Melanoma; 3 × 50 mg/kg i.p.): 37%
T/C (based on mean relative volume of tumor) (Lung Adenocarcinoma): 34%
T/C (based on mean relative volume of tumor) [1]: 110%
